Reference: article PMC12238723, “Phase I Clinical Trial of CVL218, a Novel PARP1/2 Inhibitor, in Patients with Advanced Solid Tumors” (MedComm, 2025)

How the values were obtained:
[1] = parameters: method as in PMID 36283983; conditions: cited from earlier work
[2] = Plasma PK after multiple oral doses (Cycle 1 Day 28); format: in vivo, patients
Method: The period during which patients received a single dose is designated as cycle 0 (C0), lasting 72 h. After this period, patients begin multiple dosing, referred to as cycle 1 (C1). An initial accelerated titration design was employed for the three lowest dose groups, and the “3+3” design was applied starting with the 300 mg BID cohort. […] Single-dose and multiple-dose PK parameters included C max, T max, elimination half-life (T 1/2), AUC0- t , AUC0-inf, oral clearance (CL/F), and apparent volume of distribution (V z/F) for CVL218. Tumor response was assessed per RECIST 1.1. ORR was defined as proportion of patients with a CR or PR on at least one visit, while DCR was defined as proportion of patients with a CR or PR or SD. PFS was defined as the time from the first dose of either drug to investigator assessed radiologic PD or to death of any cause. PFS would be censored at the time of last tumor assessment. Subjects who received at least one dose of CVL218 with postadministration safety records were included in safety analysis set. Subjects who received at least one dose of CVL218 with at least one evaluable PK parameter were included in PK analysis set. Per-protocol set were used for efficacy analysis. Descriptive statistics of safety were presented per CTCAE v5.0. The PK parameters T max and T 1/2 were shown as the median (min, max) and mean ± SD, respectively. A two-sided p < 0.05 was considered to indicate statistical significance. Statistical analysis was performed by using GraphPad prism 8.0.2 and R-4.3.3.

[3] = multiple doses C1D28, 50mg BID, n 1
[4] = multiple doses C1D28, 100mg BID, n 1
[5] = multiple doses C1D28, 200mg BID, n 1
[6] = multiple doses C1D28, 350mg BID, n 4
[7] = multiple doses C1D28, 500mg BID, n 4
[8] = multiple doses C1D28, 600mg BID, n 4
[9] = multiple doses C1D28, 700mg BID, n 6
[10] = multiple doses C1D28, 850mg BID, n 5

In the case of `CNCc1ccc(-c2cc3cc(F)cc(C(N)=O)c3o2)cc1.Cl` [CVL218], the “blood–brain barrier crossing” value [1] is listed as “readily crosses the blood–brain barrier”, the “AUC0-24, Geometric Mean” value [2, 3] is listed as 70.9 ng·h/mL and the “AUC0-t, Geometric Mean” value [2, 3] is listed as 77.9 ng·h/mL. The “AUC_TAU, Mean” value [2, 3] was 70.9 ng·h/mL, the “Cavgss, Mean” value [2, 3] was 5.91 ng/mL and the “Cl/F, Geometric Mean” value [2, 3] was 705000.0 mL/h. The “Cmax, Geometric Mean” value [2, 3] was 15.6 ng/mL, the “Cminss, Mean” value [2, 3] was 0 ng/mL and the “Vz/F, Geometric Mean” value [2, 3] was 6870000.0 mL. For the same compound, the “AUC0-24, Geometric Mean” value [2, 4] was 822.0 ng·h/mL, the “AUC0-t, Geometric Mean” value [2, 4] was 1930.0 ng·h/mL and the “AUC_TAU, Mean” value [2, 4] was 822 ng·h/mL. For the same compound, the “Cavgss, Mean” value [2, 4] was 68.5 ng/mL, the “Cl/F, Geometric Mean” value [2, 4] was 122000.0 mL/h and the “Cmax, Geometric Mean” value [2, 4] was 148.0 ng/mL. The “Cminss, Mean” value [2, 4] was 38 ng/mL, the “Vz/F, Geometric Mean” value [2, 4] was 1750000.0 mL and the “AUC0-24, Geometric Mean” value [2, 5] was 808.0 ng·h/mL. For the same compound, the “AUC0-t, Geometric Mean” value [2, 5] was 1360.0 ng·h/mL, the “AUC_TAU, Mean” value [2, 5] was 808 ng·h/mL and the “Cavgss, Mean” value [2, 5] was 67.3 ng/mL. The “Cl/F, Geometric Mean” value [2, 5] was 248000.0 mL/h, the “Cmax, Geometric Mean” value [2, 5] was 156.0 ng/mL and the “Cminss, Mean” value [2, 5] was 28.6 ng/mL. The “Vz/F, Geometric Mean” value [2, 5] was 4780000.0 mL, the “AUC0-24, Geometric Mean” value [2, 6] was 2230.0 ng·h/mL and the “AUC0-inf, Geometric Mean” value [2, 6] was 5860.0 ng·h/mL. The “AUC0-t, Geometric Mean” value [2, 6] was 4750.0 ng·h/mL, the “AUC_TAU, Mean” value [2, 6] was 2170 ng·h/mL and the “Cavgss, Mean” value [2, 6] was 181 ng/mL. For the same compound, the “Cl/F, Geometric Mean” value [2, 6] was 157000.0 mL/h, the “Cmax, Geometric Mean” value [2, 6] was 313.0 ng/mL and the “Cminss, Mean” value [2, 6] was 72.2 ng/mL. The “T1/2, Mean” value [2, 6] was 5.4 h, the “Vz/F, Geometric Mean” value [2, 6] was 1400000.0 mL and the “AUC0-24, Geometric Mean” value [2, 7] was 3210.0 ng·h/mL. The “AUC0-inf, Geometric Mean” value [2, 7] was 6920.0 ng·h/mL, the “AUC0-t, Geometric Mean” value [2, 7] was 6830.0 ng·h/mL and the “AUC_TAU, Mean” value [2, 7] was 3870 ng·h/mL. The “Cavgss, Mean” value [2, 7] was 323 ng/mL, the “Cl/F, Geometric Mean” value [2, 7] was 158500.0 mL/h and the “Cmax, Geometric Mean” value [2, 7] was 562.5 ng/mL. The “Cminss, Mean” value [2, 7] was 177 ng/mL, the “T1/2, Mean” value [2, 7] was 4.1 h and the “Vz/F, Geometric Mean” value [2, 7] was 1380000.0 mL. For the same compound, the “AUC0-24, Geometric Mean” value [2, 8] was 1880.0 ng·h/mL, the “AUC0-inf, Geometric Mean” value [2, 8] was 7700.0 ng·h/mL and the “AUC0-t, Geometric Mean” value [2, 8] was 2560.0 ng·h/mL. The “AUC_TAU, Mean” value [2, 8] was 2810 ng·h/mL, the “Cavgss, Mean” value [2, 8] was 234 ng/mL and the “Cl/F, Geometric Mean” value [2, 8] was 318000.0 mL/h. For the same compound, the “Cmax, Geometric Mean” value [2, 8] was 311.0 ng/mL, the “Cminss, Mean” value [2, 8] was 118 ng/mL and the “T1/2, Mean” value [2, 8] was 5.1 h. The “Vz/F, Geometric Mean” value [2, 8] was 2440000.0 mL, the “AUC0-24, Geometric Mean” value [2, 9] was 3830.0 ng·h/mL and the “AUC0-inf, Geometric Mean” value [2, 9] was 4170.0 ng·h/mL. For the same compound, the “AUC0-t, Geometric Mean” value [2, 9] was 3830.0 ng·h/mL, the “AUC_TAU, Mean” value [2, 9] was 4450 ng·h/mL and the “Cavgss, Mean” value [2, 9] was 371 ng/mL. The “Cl/F, Geometric Mean” value [2, 9] was 183000.0 mL/h, the “Cmax, Geometric Mean” value [2, 9] was 660.0 ng/mL and the “Cminss, Mean” value [2, 9] was 127 ng/mL. The “T1/2, Mean” value [2, 9] was 3.9 h, the “Vz/F, Geometric Mean” value [2, 9] was 1090000.0 mL and the “AUC0-24, Geometric Mean” value [2, 10] was 5150.0 ng·h/mL. For the same compound, the “AUC0-inf, Geometric Mean” value [2, 10] was 2940.0 ng·h/mL, the “AUC0-t, Geometric Mean” value [2, 10] was 5150.0 ng·h/mL and the “AUC_TAU, Mean” value [2, 10] was 5150 ng·h/mL. For the same compound, the “Cavgss, Mean” value [2, 10] was 429 ng/mL, the “Cl/F, Geometric Mean” value [2, 10] was 230000.0 mL/h and the “Cmax, Geometric Mean” value [2, 10] was 776.0 ng/mL. The “Cminss, Mean” value [2, 10] was 194 ng/mL, the “T1/2, Mean” value [2, 10] was 4.4 h and the “Vz/F, Geometric Mean” value [2, 10] was 1532500.0 mL. For the same compound, the “median Tmax” value ([2]; multiple doses, range over cohorts) was 1 to 3 h, the mean half-life ([2]; multiple oral doses, range over cohorts) was 3.9 to 5.4 h and the “median Tmax” value ([2]; recommended dose of 700 mg BID) was 2 h.
